Common to all, as to type: in vitro ADME
The target in one assay is T1, CYP2B6 (Homo sapiens, UniProt P20813).
T1 construct: the incubation mixtures containing pooled HLMs (0.25 mg/mL, H2630, Xenotech); tissue Xenotech H2630; host or cells: pooled human liver microsomes
T1 sequence (P20813 1-491): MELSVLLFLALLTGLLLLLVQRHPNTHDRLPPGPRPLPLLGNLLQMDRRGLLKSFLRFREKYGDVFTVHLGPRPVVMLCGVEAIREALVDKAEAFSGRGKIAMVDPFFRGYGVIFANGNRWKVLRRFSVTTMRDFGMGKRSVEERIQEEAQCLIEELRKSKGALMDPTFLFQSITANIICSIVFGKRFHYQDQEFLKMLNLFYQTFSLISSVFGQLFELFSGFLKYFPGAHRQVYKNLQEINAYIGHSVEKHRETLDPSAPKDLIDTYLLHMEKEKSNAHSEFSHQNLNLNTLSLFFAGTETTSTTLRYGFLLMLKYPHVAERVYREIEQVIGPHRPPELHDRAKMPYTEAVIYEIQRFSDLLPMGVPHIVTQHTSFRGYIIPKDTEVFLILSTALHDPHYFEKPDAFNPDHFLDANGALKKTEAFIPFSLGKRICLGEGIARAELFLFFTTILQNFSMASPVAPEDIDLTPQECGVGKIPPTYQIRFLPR
Kind of assay: CYP2B6 inhibition (bupropion 4-hydroxylase) in human liver microsomes, substrate cocktail LC-MS/MS. As to the method: (§1) The inhibitory effects of two selaginellins on the metabolism of ten P450 probe substrates were evaluated using previously reported method with minor modification. Phenacetin O-deethylase, coumarin 7-hydroxylase, bupropion 4-hydroxylase, amodiaquine N-deethylase, tolbutamide 4-hydroxylase, omeprazole 5-hydroxylase, dextromethorphan O-demethylase, chlorzoxazone 6-hydroxylase and midazolam 1′-hydroxylase activities were determined as probe activities for CYP1A2, CYP2A6, CYP2B6, CYP2C8, CYP2C9, CYP2C19, CYP2D6, CYP2E1 and […], respectively, using substrate cocktail incubation and tandem mass spectrometry (Table 2). Selaginellins were dissolved in methanol. The final concentrations of organic solvent (methanol) for the cocktail incubation conditions in all experiments were 1.0% (v/v). In brief, the incubation mixtures containing pooled HLMs (0.25 mg/mL, H2630, Xenotech), P450 probe substrate cocktail, and inhibitor (0, 0.5, 2, 5, 20 and 50 μM) were preincubated at 37 °C for 5 min. […] After mixing and centrifugation, aliquots were analyzed by liquid chromatography-tandem mass spectrometry (LC-MS/MS) as previous described. The CYP2J2 inhibitory effects of two selaginellins were also evaluated in pooled HLMs using previously reported method. […]
A general note: Microsomes from liver hold many membrane-bound enzymes, among them those of drug oxidation.

A further assay deals with T2, UGT1A3 (Homo sapiens, UniProt P35503).
T2 construct: from tissue; host or cells: human liver microsomes
T2 sequence (P35503 29-534): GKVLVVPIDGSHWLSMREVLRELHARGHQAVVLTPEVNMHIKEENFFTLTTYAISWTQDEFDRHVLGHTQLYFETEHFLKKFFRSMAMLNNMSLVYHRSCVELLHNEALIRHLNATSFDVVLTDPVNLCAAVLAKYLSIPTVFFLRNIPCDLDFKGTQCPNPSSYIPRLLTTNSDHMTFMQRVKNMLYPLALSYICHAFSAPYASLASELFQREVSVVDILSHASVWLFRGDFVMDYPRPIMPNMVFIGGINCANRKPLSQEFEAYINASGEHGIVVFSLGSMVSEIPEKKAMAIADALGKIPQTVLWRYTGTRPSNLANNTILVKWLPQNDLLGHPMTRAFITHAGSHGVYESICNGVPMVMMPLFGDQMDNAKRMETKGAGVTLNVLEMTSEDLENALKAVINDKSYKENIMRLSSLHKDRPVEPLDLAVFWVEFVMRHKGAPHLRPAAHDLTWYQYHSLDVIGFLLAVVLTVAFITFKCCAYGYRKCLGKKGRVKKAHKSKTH
Kind of assay: UGT1A3 inhibition (chenodeoxycholic acid glucuronidation) in human liver microsomes, cocktail LC-MS/MS. To be noted: IC50 UGT isoform 1A3, HLMs 0.25 mg/mL with alamethicin, chenodeoxycholic acid 2.0 μM. As to the method: The inhibitory effects of two selaginellins on the metabolism of six UGT probe substrates were evaluated using previously reported method with minor modification. In brief, HLMs (0.25 mg/mL) were activated by incubation in the presence of alamethicin (25 μg/mL) for 15 min on ice. After the addition of UGT isoform-selective substrates and selaginellins (0, 0.5, 2, 5, 20 and 50 μM) the final concentrations of organic solvent (methanol) for the cocktail incubation conditions were 1.0% (v/v). The incubation reaction mixtures were pre-incubated for 5 min. The reaction was initiated by the addition of 5 mM UDPGA and further incubated for 60 min. All reactions were terminated by adding ice-cold acetonitrile containing estrone glucuronide (IS). After mixing and centrifugation, aliquots were injected into a LC-MS/MS as described previously (Table 2). All microsomal incubations were performed in triplicate.
The IC50 values (concentration of the inhibitor causing 50% inhibition of the original enzyme activity) were calculated using WinNonlin software (Pharsight, Mountain View, CA, USA): percentage of control activity = 100 × [1 − (I/(I + IC50))], where I is the inhibitor concentration, and IC50 is the inflection point on the curve.

Another assay addresses T3, CYP2J2 (Homo sapiens, UniProt P51589).
T3 construct: from tissue; host or cells: pooled human liver microsomes
T3 sequence (P51589 1-502): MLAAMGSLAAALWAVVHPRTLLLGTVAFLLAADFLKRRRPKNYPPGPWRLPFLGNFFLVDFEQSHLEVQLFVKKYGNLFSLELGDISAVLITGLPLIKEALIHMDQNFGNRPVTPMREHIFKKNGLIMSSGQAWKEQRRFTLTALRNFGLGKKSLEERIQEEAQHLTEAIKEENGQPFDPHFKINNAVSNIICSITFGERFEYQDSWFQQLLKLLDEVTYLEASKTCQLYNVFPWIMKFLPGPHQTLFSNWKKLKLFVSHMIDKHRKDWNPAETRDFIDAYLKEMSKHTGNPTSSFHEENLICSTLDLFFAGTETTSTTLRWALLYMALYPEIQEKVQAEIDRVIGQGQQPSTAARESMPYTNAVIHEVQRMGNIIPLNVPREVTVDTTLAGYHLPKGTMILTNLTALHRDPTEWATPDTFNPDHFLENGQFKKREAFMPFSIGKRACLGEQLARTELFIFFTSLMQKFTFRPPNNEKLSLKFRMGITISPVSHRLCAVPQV
Kind of assay: CYP2J2 inhibition (astemizole O-demethylation) in pooled human liver microsomes, LC-MS/MS. To be noted: IC50 P450 isoform 2J2, pooled HLMs 0.25 mg/mL, astemizole 1.0 μM. As to the method: as §1

The term IC50 denotes the concentration at which inhibition is half-maximal.

Each structure is given as a SMILES string.

As for `COc1ccc(C(=C2C=CC(=O)C=C2)c2c(-c3ccc(O)cc3)ccc(CO)c2C#Cc2ccc(O)cc2)cc1` [Selaginellin M], the IC50 against CYP2B6 was found to be 11.3 µM; at UGT1A3, 3.5 µM; on CYP2J2, 2.7 µM.
Taken in the same sequence, the figures for `O=C1C=CC(=C(c2ccc(O)cc2)c2c(-c3ccc(O)cc3)ccc(CO)c2C#Cc2ccc(O)cc2)C=C1` [Selaginellin] were 10.7 µM, 4.7 µM and 0.8 µM.

For the origin of these results see PMC6151550, “Inhibitory Effect of Selaginellins from Selaginella tamariscina (Beauv.) Spring against Cytochrome P450 and Uridine 5′-Diphosphoglucuronosyltransferase Isoforms on Human Liver Microsomes” (Molecules : A Journal of Synthetic Chemistry and Natural …, 2017).
